Assay results published in ChEMBL document CHEMBL3526145, “Metabolism, excretion, and pharmacokinetics of ((3,3-difluoropyrrolidin-1-yl)((2S,4S)-4-(4-(pyrimidin-2-yl)piperazin-1-yl)pyrrolidin-2-yl)methanone, a dipeptidyl peptidase inhibitor, in rat, dog and human” (Drug Metab Dispos, 2012).

Key:
[1] = Retention time of the compound by HPLC method; format: physicochemical
[2] = Drug level in urine of human treated with [14C]PF-00734200 at […], po administered as single dose by LC-MS/MS method; format: ADME, organism-based; set-up: route oral; settings: in vivo
Homo sapiens [3] = test: Total drug level in human treated with [14C]PF-00734200 assessed as total radio activity at […], po administered as single dose […]; format: ADME, organism-based; set-up: route oral; settings: in vivo
[4] = Drug level in feces of Sprague-Dawley rat treated with [14C]PF-00734200 at 5 mg/kg, po administered as single dose by LC-MS/MS method; format: ADME, organism-based; set-up: dose 5 mg/kg, route oral; settings: in vivo
Rattus norvegicus = test: Total drug level in Sprague-Dawley rat treated with [14C]PF-00734200 assessed as total radio activity at 5 mg/kg, po administered as single dose […]; format: ADME, organism-based; set-up: dose 5 mg/kg, route oral; settings: in vivo
Plasma [5] = test: Drug level in beagle dog plasma treated with [14C]PF-00734200 at 5 mg/kg, po administered as single dose by LC-MS/MS method; format: ADME, organism-based, Canis lupus familiaris; set-up: dose 5 mg/kg, route oral; settings: in vivo
[6] = Drug level in bile of bile duct-cannulated Sprague-Dawley rat treated with [14C]PF-00734200 at 5 mg/kg, po administered as single dose by LC-MS/MS method; format: ADME, organism-based; set-up: dose 5 mg/kg, route oral; settings: in vivo
[7] = Drug level in urine of beagle dog treated with [14C]PF-00734200 at 5 mg/kg, po administered as single dose by LC-MS/MS method; format: ADME, organism-based, Canis lupus familiaris; set-up: dose 5 mg/kg, route oral; settings: in vivo
Canis familiaris = test: Total drug level in beagle dog treated with [14C]PF-00734200 assessed as total radio activity at 5 mg/kg, po administered as single dose […]; format: ADME, organism-based, Canis lupus familiaris; set-up: dose 5 mg/kg, route oral; settings: in vivo
[8] = Drug level in urine of Sprague-Dawley rat treated with [14C]PF-00734200 at 5 mg/kg, po administered as single dose by LC-MS/MS method; format: ADME, organism-based; set-up: dose 5 mg/kg, route oral; settings: in vivo
Plasma [9] = test: Drug level in Sprague-Dawley rat plasma treated with [14C]PF-00734200 at 5 mg/kg, po administered as single dose by LC-MS/MS method; format: ADME, organism-based; set-up: dose 5 mg/kg, route oral; settings: in vivo
Cytochrome P450 2D6 = Cytochrome P450 2D6 (Homo sapiens, UniProt P10635); test: Drug metabolism assessed as human CYP2D6-mediated metabolite (3,3-difluoropyrrolidin-1-yl){(2S,4S)-4-[4-(5-hydroxypyrimidin-2-yl)piperazin-1-yl]pyrrolidin-2-yl}methanone formation by LC-MS/MS method; format: ADME; settings: recombinant enzyme
Chain of Cytochrome P450 2D6 (P10635 whole entry): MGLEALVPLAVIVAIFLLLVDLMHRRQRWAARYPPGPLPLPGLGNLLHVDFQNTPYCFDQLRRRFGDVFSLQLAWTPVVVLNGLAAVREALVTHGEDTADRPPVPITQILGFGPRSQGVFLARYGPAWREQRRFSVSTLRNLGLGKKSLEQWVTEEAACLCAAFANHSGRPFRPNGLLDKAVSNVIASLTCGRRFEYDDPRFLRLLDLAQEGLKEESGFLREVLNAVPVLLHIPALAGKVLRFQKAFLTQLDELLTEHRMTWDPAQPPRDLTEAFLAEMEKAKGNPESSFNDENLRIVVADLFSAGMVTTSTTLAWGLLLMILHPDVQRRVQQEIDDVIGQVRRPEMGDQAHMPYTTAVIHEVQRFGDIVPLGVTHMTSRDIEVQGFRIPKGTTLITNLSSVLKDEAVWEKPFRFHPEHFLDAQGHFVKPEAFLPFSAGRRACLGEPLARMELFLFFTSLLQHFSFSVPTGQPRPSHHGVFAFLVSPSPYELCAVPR

Homo sapiens [10] = test: AUC (0 to 168 hrs) in human treated with [14C]PF-00734200 at […], po administered as single dose; format: ADME, organism-based, Plasma; set-up: time < 168 hr, route oral; settings: in vivo
Homo sapiens [11] = test: Elimination half life in human treated with [14C]PF-00734200 at […], po administered as single dose; format: ADME, organism-based; set-up: route oral; settings: in vivo
Homo sapiens [12] = test: Cmax in human treated with [14C]PF-00734200 at […], po administered as single dose; format: ADME, organism-based; set-up: route oral; settings: in vivo
[13] = Drug level in feces of human treated with [14C]PF-00734200 at […], po administered as single dose by LC-MS/MS method; format: ADME, organism-based; set-up: route oral; settings: in vivo
Homo sapiens [14] = test: AUC (0 to infinity) in human treated with [14C]PF-00734200 at […], po administered as single dose; format: ADME, organism-based, Plasma; set-up: route oral, time infinity; settings: in vivo
Homo sapiens [15] = test: Oral clearance in human treated with [14C]PF-00734200 at […], po administered as single dose; format: ADME, organism-based; set-up: route oral; settings: in vivo
Homo sapiens [16] = test: Tmax in human treated with [14C]PF-00734200 at […], po administered as single dose; format: ADME, organism-based; set-up: route oral; settings: in vivo
[17] = Drug level in feces of beagle dog treated with [14C]PF-00734200 at 5 mg/kg, po administered as single dose by LC-MS/MS method; format: ADME, organism-based, Canis lupus familiaris; set-up: dose 5 mg/kg, route oral; settings: in vivo
Cytochrome P450 3A4 = Cytochrome P450 3A4 (Homo sapiens, UniProt P08684); test: Drug metabolism assessed as human CYP3A4-mediated metabolite (3,3-difluoropyrrolidin-1-yl){(2S,4S)-4-[4-(5-hydroxypyrimidin-2-yl)piperazin-1-yl]pyrrolidin-2-yl}methanone formation by LC-MS/MS method; format: ADME; settings: recombinant enzyme
Chain of Cytochrome P450 3A4 (P08684 whole entry): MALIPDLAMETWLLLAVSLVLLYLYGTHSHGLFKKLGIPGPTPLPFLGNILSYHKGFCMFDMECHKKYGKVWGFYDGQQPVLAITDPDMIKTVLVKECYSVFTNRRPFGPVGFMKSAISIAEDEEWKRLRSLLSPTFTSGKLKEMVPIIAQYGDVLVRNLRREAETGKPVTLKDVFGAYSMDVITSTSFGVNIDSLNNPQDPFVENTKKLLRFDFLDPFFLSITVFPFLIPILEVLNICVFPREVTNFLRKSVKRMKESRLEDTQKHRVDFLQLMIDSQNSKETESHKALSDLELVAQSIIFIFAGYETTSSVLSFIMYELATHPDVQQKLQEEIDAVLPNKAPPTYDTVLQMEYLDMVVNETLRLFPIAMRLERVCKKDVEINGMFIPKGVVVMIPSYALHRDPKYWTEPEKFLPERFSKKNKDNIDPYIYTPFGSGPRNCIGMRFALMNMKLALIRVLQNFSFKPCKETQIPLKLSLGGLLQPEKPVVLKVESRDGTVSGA

Serum = test: Drug level in human serum treated with [14C]PF-00734200 at […], po administered as single dose by LC-MS/MS method; format: ADME, organism-based; set-up: route oral; settings: in vivo

Structure (SMILES)	Retention_time [1]	Drug uptake [2]	Drug uptake (Homo sapiens [3])	Drug uptake (Rattus norvegicus)	Drug uptake (Plasma [5])	Drug uptake [7]	further results
NC(=O)N1C[C@@H](N2CCN(c3ncccn3)CC2)C[C@H]1C(=O)N1CCC(F)(F)C1	30.2 min	1%	1%				
O=C([C@@H]1C[C@H](N2CCN(c3ncc(O)cn3)CC2)CN1[C@@H]1O[C@H](CO)[C@@H](O)[C@H](O)[C@H]1O)N1CCC(F)(F)C1	28.2 min						
O=CN1C[C@@H](N2CCN(c3ncc(O)cn3)CC2)C[C@H]1C(=O)N1CCC(F)(F)C1	27.4 min			5.5%			Drug uptake [4]: 5.5%
O=C([C@@H]1C[C@H](N2CCN(c3ncccn3)CC2)CN1[C@@H]1O[C@H](CO)[C@@H](O)[C@H](O)[C@H]1O)N1CCC(F)(F)C1	29.2 min	0.9%	0.9%				
O=C([C@@H]1C[C@H](N2CCN(c3ncc(OS(=O)(=O)O)cn3)CC2)CN1)N1CCC(F)(F)C1	24.5 min				1.8%	2.6%	Drug uptake [6]: 2.1%
O=C(O)[C@H]1O[C@@H](OC(=O)N2C[C@@H](N3CCN(c4ncc(O)cn4)CC3)C[C@H]2C(=O)N2CCC(F)(F)C2)[C@H](O)[C@@H](O)[C@@H]1O	24.5 min				1.8%		
c1cnc(N2CCNCC2)nc1 [2-PIPERAZIN-1-YL-PYRIMIDINE]	6.5 min			1.4%	0.7%	0.9%	Drug uptake (Canis familiaris): 0.9%; Drug uptake [8]: 1.4%; Drug uptake (Plasma [9]): 1.7%
O=C([C@@H]1C[C@H](N2CCN(c3ncccn3)CC2)CN1)N1CCC(F)(F)C1 [GOSOGLIPTIN]		48.5%	48.9%	12.1%	80.1%	25.6%	Drug uptake (Canis familiaris): 27.4%; Drug metabolism (Cytochrome P450 2D6): metabolite_detected; AUC (Homo sapiens [10]): 2560 ng·h/mL; beta t1/2 (Homo sapiens [11]): 63.5 h; Cmax (Homo sapiens [12]): 241.3 ng/mL; Drug uptake [13]: 0.4%; Drug uptake [8]: 11%; AUC (Homo sapiens [14]): 2660 ng·h/mL; CL/F (Homo sapiens [15]): 125.3 mL/min; Tmax (Homo sapiens [16]): 1 h; Drug uptake [17]: 1.8%; Drug metabolism (Cytochrome P450 3A4): metabolite_detected; Drug uptake [4]: 1.1%; Drug uptake (Serum): 94.5%; Drug uptake (Plasma [9]): 79.9%
